We go through four compounds from patent US10392391B2 (Vertex Pharmaceuticals Incorporated, priority 2012, dated 2019).

For assay [1], the target named is ATR kinase (full-length ATR) (Homo sapiens (Human), UniProt Q13535). The experiment in a line: ATR inhibition assay (radioactive-phosphate incorporation). The conditions noted are these: Ki(app), 5 nM full-length ATR, 10 μM ATP, 25° C. It counts as biochemical. A digest of the protocol: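 Radiometric 33P incorporation by 5 nM full-length ATR into 800 μM target peptide with 10 μM [γ-33P]ATP, in 50 mM Tris/HCl pH 7.5, 10 mM MgCl2, 1 mM DTT, 7% DMSO, 25° C. Compound pre-incubated 10 minutes; reaction stopped after 24 hours, captured on phosphocellulose. Ki(app) from non-linear regression of initial rates.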
ATR kinase (full-length ATR), sequence (Q13535 whole entry): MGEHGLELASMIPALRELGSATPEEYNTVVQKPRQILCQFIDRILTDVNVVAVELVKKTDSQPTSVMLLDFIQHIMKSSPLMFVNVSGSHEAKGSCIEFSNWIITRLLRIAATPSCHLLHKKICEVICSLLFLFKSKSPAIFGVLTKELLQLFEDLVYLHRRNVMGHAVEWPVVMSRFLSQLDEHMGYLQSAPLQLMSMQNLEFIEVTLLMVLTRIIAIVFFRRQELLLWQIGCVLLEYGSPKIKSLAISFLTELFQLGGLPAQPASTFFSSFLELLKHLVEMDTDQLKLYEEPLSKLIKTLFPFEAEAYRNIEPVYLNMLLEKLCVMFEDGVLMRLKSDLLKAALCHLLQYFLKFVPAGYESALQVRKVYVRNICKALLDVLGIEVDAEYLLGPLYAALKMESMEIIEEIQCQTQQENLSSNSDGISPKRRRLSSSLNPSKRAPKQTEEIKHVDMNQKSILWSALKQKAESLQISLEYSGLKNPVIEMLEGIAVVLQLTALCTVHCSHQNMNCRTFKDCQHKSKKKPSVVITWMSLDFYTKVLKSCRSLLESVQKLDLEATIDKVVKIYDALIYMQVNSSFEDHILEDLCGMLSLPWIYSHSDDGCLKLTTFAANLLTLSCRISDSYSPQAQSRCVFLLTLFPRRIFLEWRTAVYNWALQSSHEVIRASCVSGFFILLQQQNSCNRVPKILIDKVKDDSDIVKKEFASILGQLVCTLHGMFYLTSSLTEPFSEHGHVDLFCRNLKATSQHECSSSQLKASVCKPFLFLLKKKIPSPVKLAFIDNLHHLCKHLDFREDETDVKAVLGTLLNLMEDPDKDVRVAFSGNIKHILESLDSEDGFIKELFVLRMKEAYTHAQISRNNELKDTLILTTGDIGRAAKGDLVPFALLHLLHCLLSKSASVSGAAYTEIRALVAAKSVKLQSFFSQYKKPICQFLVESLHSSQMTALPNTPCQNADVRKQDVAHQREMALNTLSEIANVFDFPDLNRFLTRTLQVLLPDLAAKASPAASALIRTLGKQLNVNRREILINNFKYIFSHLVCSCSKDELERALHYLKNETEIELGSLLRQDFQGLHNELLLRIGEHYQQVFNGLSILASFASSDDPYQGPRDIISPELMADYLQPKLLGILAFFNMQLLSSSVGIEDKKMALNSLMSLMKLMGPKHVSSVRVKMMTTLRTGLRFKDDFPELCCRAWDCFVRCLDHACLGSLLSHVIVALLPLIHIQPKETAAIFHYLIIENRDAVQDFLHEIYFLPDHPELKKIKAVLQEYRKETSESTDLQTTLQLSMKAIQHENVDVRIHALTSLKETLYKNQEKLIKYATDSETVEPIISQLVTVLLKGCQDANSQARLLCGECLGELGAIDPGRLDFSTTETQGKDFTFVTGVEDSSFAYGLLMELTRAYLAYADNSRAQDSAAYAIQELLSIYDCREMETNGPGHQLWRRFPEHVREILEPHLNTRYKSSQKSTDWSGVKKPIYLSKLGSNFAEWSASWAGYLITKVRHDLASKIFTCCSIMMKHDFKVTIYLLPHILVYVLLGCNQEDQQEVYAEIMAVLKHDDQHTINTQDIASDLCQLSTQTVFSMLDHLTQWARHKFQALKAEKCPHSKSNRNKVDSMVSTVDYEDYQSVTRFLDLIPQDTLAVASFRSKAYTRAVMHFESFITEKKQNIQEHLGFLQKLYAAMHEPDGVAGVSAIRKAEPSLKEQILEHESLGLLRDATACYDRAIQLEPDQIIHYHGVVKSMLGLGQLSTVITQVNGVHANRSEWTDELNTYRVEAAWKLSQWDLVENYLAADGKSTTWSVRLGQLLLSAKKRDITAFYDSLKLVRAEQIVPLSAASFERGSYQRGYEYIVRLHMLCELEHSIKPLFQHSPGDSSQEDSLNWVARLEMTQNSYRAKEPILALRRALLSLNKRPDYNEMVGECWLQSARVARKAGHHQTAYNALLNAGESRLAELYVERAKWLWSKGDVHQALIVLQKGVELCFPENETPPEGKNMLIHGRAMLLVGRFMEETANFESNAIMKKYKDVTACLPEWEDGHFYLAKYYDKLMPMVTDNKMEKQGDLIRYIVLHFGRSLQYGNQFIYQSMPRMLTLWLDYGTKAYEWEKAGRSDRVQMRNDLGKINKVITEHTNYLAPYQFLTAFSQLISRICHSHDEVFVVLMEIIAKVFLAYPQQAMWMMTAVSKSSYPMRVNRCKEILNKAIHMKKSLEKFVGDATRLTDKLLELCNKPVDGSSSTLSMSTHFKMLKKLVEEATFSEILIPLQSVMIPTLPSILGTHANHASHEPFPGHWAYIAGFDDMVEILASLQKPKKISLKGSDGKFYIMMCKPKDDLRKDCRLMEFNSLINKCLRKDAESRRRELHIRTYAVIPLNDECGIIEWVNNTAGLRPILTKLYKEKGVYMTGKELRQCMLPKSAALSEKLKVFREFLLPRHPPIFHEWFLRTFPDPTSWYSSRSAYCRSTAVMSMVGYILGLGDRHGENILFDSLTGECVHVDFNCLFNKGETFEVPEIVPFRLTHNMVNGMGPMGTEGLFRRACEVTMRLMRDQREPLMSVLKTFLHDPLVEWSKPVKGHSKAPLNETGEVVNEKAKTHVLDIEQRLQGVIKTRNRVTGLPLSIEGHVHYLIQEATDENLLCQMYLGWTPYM

For assay [2], the system named is HCT116 colorectal cancer cells. The experiment in a line: Cisplatin sensitization assay, 96 h cell viability (MTS). It counts as cell-based. The conditions noted are these: 96 h MTS, concentration of compound required to reduce the IC50 of Cisplatin. As for the experimental part:
Compounds can be screened for their ability to sensitize HCT116 colorectal cancer cells to Cisplatin using a 96 h cell viability (MTS) assay. […] Compounds and Cisplatin are then both added simultaneously to the cell media in 2-fold serial dilutions from a top final concentration of 10 μM as a full matrix of concentrations in a final cell volume of 200 μl, and the cells are then incubated at 37° C. in 5% CO2. After 96 h, 40 μl of MTS reagent (Promega G358a) is added to each well and the cells are incubated for 1 h at 37° C. in 5% CO2.
Compounds with a Cisplatin sensitization value of <0.02 μM are marked with “+++.” Compounds with a Cisplatin sensitization value >0.02 μM but <0.2 μM are marked with “++.” Compounds with a Cisplatin sensitization value >0.2 μM but <5 μM are marked with “+.”

The target of assay [3] is ATR kinase, in the presence of partner proteins ATRIP, CLK2 and TopBP1 (Homo sapiens (Human), UniProt Q13535). The experiment in a line: ATR-complex inhibition assay (radioactive-phosphate incorporation). Type of assay: biochemical. The conditions noted are these: Ki(app); 4 nM full-length ATR, 40 nM ATRIP, 40 nM CLK2, 600 nM TopBP1; 10 μM ATP; 25° C. The protocol: Compounds were screened for their ability to inhibit ATR kinase, in the presence of partner proteins ATRIP, CLK2 and TopBP1, using a radioactive-phosphate incorporation assay. Assays were carried out in a mixture of 50 mM Tris/HCl (pH 7.5), 10 mM MgCl2 and 1 mM DTT. Final substrate concentrations were 10 μM [g-33P]ATP (3.5 μCi 33P ATP/nmol ATP, Perkin Elmer, Massachusetts, USA) and 800 μM target peptide ([…]) (SEQ ID NO: 1); Isca Biochemicals, Cambridgeshire, UK).
ATR kinase, in the presence of partner proteins ATRIP, CLK2 and TopBP1, sequence (Q13535 whole entry): as above
ATR kinase, in the presence of partner proteins ATRIP, CLK2 and TopBP1, sequence (Q8WXE1 whole entry partner): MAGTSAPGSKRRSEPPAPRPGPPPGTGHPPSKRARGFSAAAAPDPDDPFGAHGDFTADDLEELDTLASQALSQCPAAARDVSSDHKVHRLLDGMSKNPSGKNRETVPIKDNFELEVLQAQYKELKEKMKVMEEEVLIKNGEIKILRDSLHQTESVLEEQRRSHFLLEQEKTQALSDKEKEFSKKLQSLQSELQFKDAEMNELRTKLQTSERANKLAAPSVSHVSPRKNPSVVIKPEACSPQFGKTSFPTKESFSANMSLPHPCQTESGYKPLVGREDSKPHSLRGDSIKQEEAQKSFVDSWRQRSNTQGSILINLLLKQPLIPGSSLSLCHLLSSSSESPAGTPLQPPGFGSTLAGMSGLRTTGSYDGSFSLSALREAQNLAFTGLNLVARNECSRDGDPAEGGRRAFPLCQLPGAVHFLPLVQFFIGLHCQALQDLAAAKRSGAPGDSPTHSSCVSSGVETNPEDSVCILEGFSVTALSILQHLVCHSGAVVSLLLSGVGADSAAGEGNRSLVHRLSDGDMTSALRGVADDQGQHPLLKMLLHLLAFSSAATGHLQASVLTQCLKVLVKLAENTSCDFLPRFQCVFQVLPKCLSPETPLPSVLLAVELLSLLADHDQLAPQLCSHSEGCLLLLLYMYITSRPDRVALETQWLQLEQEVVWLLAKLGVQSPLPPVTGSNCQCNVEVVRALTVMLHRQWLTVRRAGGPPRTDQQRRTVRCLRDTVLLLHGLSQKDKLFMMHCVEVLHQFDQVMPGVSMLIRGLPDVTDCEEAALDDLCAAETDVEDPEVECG
Assays were carried out at 25° C. in the presence of 4 nM full-length ATR, 40 nM full-length ATRIP, 40 nM full-length CLK2 and 600 nM TopBP1 (A891-S1105). An enzyme stock buffer solution was prepared containing all of the reagents listed above, with the exception of target peptide, ATP and the test compound of interest. This enzyme stock was pre-incubated for 30 minutes at 25° C. 8.5 μL of the enzyme stock solution was placed in a 96-well plate followed by addition of 5 μl of target peptide and 2 μL of DMSO stock containing serial dilutions of the test compound (typically starting from a final concentration of 1.5 μM with 2.5-fold serial dilutions) in duplicate (final DMSO concentration 7%). The plate was pre-incubated for 10 minutes at 25° C. and the reaction initiated by addition of 15 μL [g-33P]ATP (final concentration 10 μM).
The reaction was stopped after […] by the addition of 30 μL 0.3 M phosphoric acid containing 2 mM ATP. A phosphocellulose filter 96-well plate (Multiscreen HTS MAPHNOB50, Merck-Millipore, Massachusetts, USA) was pretreated with 100 μL 0.1 M phosphoric acid prior to the addition of 45 μL of the stopped assay mixture. The plate was washed with 5×200 μL 0.1 M phosphoric acid. After drying, 50 μL Optiphase ‘SuperMix’ liquid scintillation cocktail (Perkin Elmer, Massachusetts, USA) was added to the well prior to scintillation counting (Wallac 1450 Microbeta Liquid Scintillation Counter, Perkin Elmer, Massachusetts, USA).
After removing mean background values for all of the data points, Ki(app) data were calculated from non-linear regression analysis of the initial rate data using the Prism software package (GraphPad Prism version 6.0c for Macintosh, GraphPad Software Inc., San Diego, USA).
Compounds with a Cisplatin sensitization value of <0.02 μM are marked with “+++.” Compounds with a Ki value >0.02 μM but <0.2 μM are marked with “++.” Compounds with a Ki value >0.2 μM but <5 μM are marked with “+.”

For `CNCCCN(C)C(=O)C1CCN(c2c(F)cncc2NC(=O)c2c(N)nn3cc(F)cnc23)CC1` [I-G-17], the Ki in assay [1] was 1000 to 5000 nM. The “Cisplatin Sensitization Assay” value in assay [2] was “+ (Compounds with a Cisplatin sensitization value >0.2 μM but <5 μM are marked with “+.”)”.

With `Nc1nn2cc(F)cnc2c1C(=O)Nc1cncc(F)c1N1CCNCC1` [I-N-118, 2-amino-6-fluoro-N-(5-fluoro-4-(piperazin-1-yl)pyridin-3-yl)pyrazolo[1,5-a]pyrimidine-3-carboxamide], the Ki in assay [3] was under 20 nM; in assay [1], 10 to 1000 nM.

For the compound `CN1CCN(C(=O)c2ccc(-c3ccncc3NC(=O)c3c(N)nn4cc(F)cnc34)cc2)CC1` [I-C-25, 2-amino-6-fluoro-N-(4-(4-(4-methylpiperazine-1-carbonyl)phenyl)pyridin-3-yl)pyrazolo[1,5-a]pyrimidine-3-carboxamide], the Ki was under 20 nM in assay [3] and 10 to 1000 nM in assay [1].

Consider `CN1CCN(C(=O)C2CCN(c3c(F)cncc3NC(=O)c3c(N)nn4cc(F)cnc34)CC2)CC1` [I-G-4, 2-amino-6-fluoro-N-(5-fluoro-4-(4-(4-methylpiperazine-1-carbonyl)piperidin-1-yl)pyridin-3-yl)pyrazolo[1,5-a]pyrimidine-3-carboxamide], for which the Ki is under 20 nM in assay [3] and 10 to 1000 nM in assay [1].
